# Test results taken from patent US20050234066A1, “Alpha substituted carboxylic acids” (Agouron Pharmaceuticals, Inc., priority 2004, published 2005).
# Where two headings read alike, the source gives them in different places.
# Experiments:
# PPAR-γ = target: T1, PPAR-γ (Homo sapiens, UniProt P37231); assay: Scintillation Proximity Assay (SPA), displacement of 3H labeled darglitazone; assay type: binding; settings: 3H darglitazone displacement
# T1 sequence (P37231 1-505): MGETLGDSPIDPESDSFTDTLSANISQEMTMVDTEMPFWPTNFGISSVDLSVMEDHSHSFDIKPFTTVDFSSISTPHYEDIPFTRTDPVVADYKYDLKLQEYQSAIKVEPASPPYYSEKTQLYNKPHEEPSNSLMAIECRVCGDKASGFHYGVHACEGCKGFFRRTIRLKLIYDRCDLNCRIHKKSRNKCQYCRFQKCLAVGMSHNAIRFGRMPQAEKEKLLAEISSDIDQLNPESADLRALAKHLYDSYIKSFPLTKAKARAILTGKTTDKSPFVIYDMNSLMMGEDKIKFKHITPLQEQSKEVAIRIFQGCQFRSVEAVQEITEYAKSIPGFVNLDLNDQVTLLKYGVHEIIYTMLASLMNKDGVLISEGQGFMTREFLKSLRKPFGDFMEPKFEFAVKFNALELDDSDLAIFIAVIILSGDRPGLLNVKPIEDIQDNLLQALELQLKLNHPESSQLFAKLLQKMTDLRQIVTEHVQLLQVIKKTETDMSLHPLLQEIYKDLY
# Source text: (§1) Scintillatian Proximity Assay (SPA) Assays
# (§2) In the SPA assay, 3H labeled darglitazone (for PPAR-γ) or GW2331 (for PPAR-α) is bound to the PPAR protein captured on SPA polylysine beads and generates radioactive count signal that can be detected by TopCounts (Packard). The PPAR-bound 3H labeled ligand can be displaced by an unlabeled compound. The Ki of the compound can be then determined by the extent of displacement at various compound concentrations. Reagents: • SPA polylysine beads, which can be purchased from Amersham Bioscience. • H labeled Darglitazone for PPAR-γ. • H labeled GW2331 for PPAR-α. • PPAR proteins. • Buffer—PBS, 10% glycerol, 14 mM beta-mercaptoethanol.
# PPAR-α = target: T2, PPAR-α (Homo sapiens, UniProt Q07869); assay: Scintillation Proximity Assay (SPA), displacement of 3H labeled GW2331; assay type: binding; settings: 3H GW2331 displacement
# T2 sequence (Q07869 1-468): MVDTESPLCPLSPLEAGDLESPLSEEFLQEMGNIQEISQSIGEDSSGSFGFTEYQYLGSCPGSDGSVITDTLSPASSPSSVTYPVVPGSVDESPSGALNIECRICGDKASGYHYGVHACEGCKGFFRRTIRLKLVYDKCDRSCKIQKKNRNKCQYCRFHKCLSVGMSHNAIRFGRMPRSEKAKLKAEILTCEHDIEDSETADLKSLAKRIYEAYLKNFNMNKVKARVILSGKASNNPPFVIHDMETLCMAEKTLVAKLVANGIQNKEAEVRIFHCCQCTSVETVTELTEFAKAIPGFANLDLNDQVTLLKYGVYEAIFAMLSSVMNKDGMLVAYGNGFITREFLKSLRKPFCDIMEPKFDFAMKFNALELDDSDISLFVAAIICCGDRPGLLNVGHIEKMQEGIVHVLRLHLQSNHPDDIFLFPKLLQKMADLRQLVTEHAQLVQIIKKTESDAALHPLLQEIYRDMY
# Source text: as §1, §2
Ki (PPAR-γ; read-out: PPAR-gamma Ki) [µM],Ki (PPAR-α; read-out: PPAR-alpha Ki) [µM],SMILES,Ki (PPAR-γ; PPAR-gamma Ki) [µM],Ki (PPAR-α; PPAR-alpha Ki) [µM]
0.031,0.91,CCOC(Cc1ccc(OCCc2ccc(OS(=O)(=O)c3ccccc3)cc2)nc1)C(=O)O [Example D-17],,
0.8,2.1,Cc1oc(-c2ccccc2C#N)nc1CCOc1ccc(CC2(C(=O)O)CCC2)cc1 [Example C-22],,
0.005,0.013,Cc1oc(-c2cccc(Cl)c2)nc1CCOc1ccc(CC2(C(=O)O)CCCO2)cc1 (centres unmarked) [Example C-86],,
0.18,2.9,Cc1sc(-c2ccccc2)nc1CCOc1ccc(CC2(C(=O)O)CCCO2)nc1 (centres unmarked) [Example C-51],,
0.39,0.18,Cc1oc(-c2ccccc2)nc1CCCOc1cccc(-c2cccc(OC(C)(C)C(=O)O)c2)c1 [Example A-23],,
3.4,2.7,CCOC(Cc1cccc(CNC(=O)OCCCc2nc(-c3ccccc3)oc2C)c1)C(=O)O (centres unmarked) [Example B-23],,
9.5,41,"COc1ccc(-c2ccc(CCOc3ccc(CC4(C(=O)O)CCC4)cc3)cc2)cc1 [Example C-06, 1-{4-[2-(4′-methoxy-1,1′-biphenyl-4-yl)ethoxy]benzyl}cyclobutanecarboxylic acid]",,
0.15,0.33,Cc1nn(-c2ccccc2)nc1CCOc1cccc(-c2cccc(OC(C)(C)C(=O)O)c2)c1 [Example A-26],,
0.004,0.013,COc1cccc(-c2nc(CCOc3ccc(CC4(C(=O)O)CCCO4)cc3)c(C)o2)c1 (centres unmarked) [Example C-85],,
0.007,0.015,Cc1oc(-c2cccc(N(C)C)c2)nc1CCOc1ccc(CC2(C(=O)O)CCCO2)cc1 (centres unmarked) [Example C-79],,
0.083,0.022,Cc1oc(-c2ccc(C(F)(F)F)c(F)c2)nc1CCOc1ccc(CC2(C(=O)O)CCC2)cc1 [Example C-24],,
0.39,1.8,Cc1oc(-c2ccccc2)nc1CCOc1ccc2cc(CC3(C(=O)O)CCCO3)ccc2c1 (centres unmarked) [Example C-91],,
,2.9,Cc1oc(-c2ccccc2)nc1CCOc1cnc(CC2(C(=O)O)CCCO2)cn1 (centres unmarked) [Example C-77],0.15,
1.3,0.15,O=C(O)C1(Oc2cccc(-c3cccc(OCc4cc(-c5ccccc5)no4)c3)c2)CCC1 [Example A-14],,
0.011,0.3,COC(Cc1ccc(OCCc2nc(-c3cccc(C)c3)oc2C)nc1)C(=O)O [Example D-03],,
0.026,0.093,Cc1oc(-c2cccc(Cl)c2)nc1CCOc1ccc(CC2(C(=O)O)CCC2)cc1 [Example C-31],,
8,3.2,Cc1oc(-c2ccccc2)nc1C/C=C/c1ccc(OC2(C(=O)O)CCC2)cc1 [Example C-14],,
0.53,4.7,CCOc1ccc(-c2nc(CCOc3ccc(CC(C)(OC)C(=O)O)cn3)c(C)o2)cc1 [Example D-37],,
0.17,0.85,Cc1oc(-c2cc(F)cc(F)c2)nc1CCOc1cccc(-c2cccc(OC(C)(C)C(=O)O)c2)c1 [Example A-22],,
0.64,0.9,Cc1oc(-c2ccccc2)nc1CCCc1ccc(CC2(C(=O)O)CCCO2)cn1 (centres unmarked) [Example C-74],,
2.1,19,COc1ccc(-c2ccc(CCOc3ccc(CC4(C(=O)O)CCC4)cc3)cc2)cn1 [Example C-10],,
0.053,0.066,Cc1oc(-c2cccc(N(C)C)c2)nc1CCOc1ccc(CC2(C(=O)O)CCC2)cc1 [Example C-21],,
0.99,4,Cc1oc(-c2ccccc2)nc1CCNC(=O)OCc1cccc(OC(C)(C)C(=O)O)c1 [Example B-21],,
3.5,10,Cc1oc(-c2ccccc2)nc1CCCOc1cccc(-c2cccc(OC(C)(C)C(=O)O)n2)c1 [Example A-13],,
0.088,0.31,Cc1oc(-c2cccc(F)c2)nc1CCOc1cccc(-c2cccc(OC(C)(C)C(=O)O)c2)c1 [Example A-21],,
1.5,4.4,Cc1oc(-c2ccccc2)nc1CCOc1ccc(-c2cccc(OC3(C(=O)O)CCC3)c2)cc1 [Example A-10],,
1.9,2.2,Cc1oc(-c2ccccc2)nc1CCOC(=O)NCc1ccc(OC(C)(C)C(=O)O)cc1F [Example B-09],,
1.5,0.059,COC(C)(Cc1ccc(OCCc2nc(C3CCCCC3)oc2C)nc1)C(=O)O [Example D-32],,

Ki (PPAR-γ; read-out: PPAR-gamma Ki) [µM],Ki (PPAR-α; read-out: PPAR-alpha Ki) [µM],SMILES,Ki (PPAR-γ; PPAR-gamma Ki) [µM],Ki (PPAR-α; PPAR-alpha Ki) [µM]
3.2,4.2,Cn1nc(-c2ccccc2)nc1CCOc1cccc(-c2cccc(OC(C)(C)C(=O)O)c2)c1 [Example A-25],,
9.6,1.8,COC(C)(Cc1ccc(OCCc2ccc(Oc3ccccc3)cc2)nc1)C(=O)O [Example D-40],,
0.093,0.64,COc1ccc(-c2nc(CCOc3ccc(CC4(C(=O)O)CCCO4)nc3)c(C)o2)cc1 (centres unmarked) [Example C-53],,
14,3.2,Cc1oc(-c2ccccc2)nc1CCCc1ccc(OC2(C(=O)O)CCC2)cc1 [Example C-15],,
1.1,1.8,Cc1oc(-c2ccccc2)nc1CCOc1ccc(CC2(C(=O)O)CCCCO2)nc1 (centres unmarked) [Example C-57],,
0.006,0.015,Cc1oc(-c2ccccc2)nc1CCOc1ccc(CC2(C(=O)O)CCCO2)cc1 (centres unmarked) [Example C-78],,
0.062,0.053,Cc1oc(-c2ccc(C#N)cc2)nc1CCOc1ccc(CC2(C(=O)O)CCCO2)cc1 (centres unmarked) [Example C-80],,
1.5,2.6,CCOC(Cc1ccc(OCCc2ccc(Oc3ccccc3)cc2)nc1)C(=O)O [Example D-14],,
1.8,0.084,Cc1oc(-c2ccccc2)nc1CCCOC(=O)NCc1cccc(OC2(C(=O)O)CCC2)c1 [Example B-16],,
1.9,1.6,COc1ccc(-c2nc(COc3cccc(-c4cccc(OC5(C(=O)O)CCC5)c4)c3)no2)cc1 [Example A-17],,
0.051,0.35,Cc1oc(-c2ccccc2)nc1CCCOc1cccc(-c2cccc(OC3(C(=O)O)CCC3)c2)c1 [Example A-12],,
0.002,0.015,COc1cccc(-c2nc(CCOc3ccc(CC(OC)C(=O)O)cn3)c(C)o2)c1 [Example D-08],,
0.019,0.033,COC(Cc1ccc(OCCc2nc(-c3ccc(C)cc3)oc2C)nc1)C(=O)O [Example D-10],,
0.97,8.6,"Cc1oc(-c2ccccc2)nc1CCOc1ccc(CC2(c3nnn[nH]3)CCCO2)cn1 (centres unmarked) [Example C-95, 2-[2-(5-Methyl-2-phenyl-oxazol-4-yl)-ethoxy]-5-[2-(1H-tetrazol-5-yl)-tetrahydro-furan-2-ylmethyl]-pyridine]",,
1.5,48,CC(C)(Oc1cccc(COC(=O)NCCc2ccc(C(F)(F)F)cc2)c1)C(=O)O [Example B-04],,
2.1,10,CCOc1ccc(CCOc2ccc(CC(OCC)C(=O)O)cn2)cc1 [Example D-21],,
2.4,1.3,CC(C)(Oc1cccc(-c2cccc(OCCCOCc3ccccc3)c2)c1)C(=O)O [Example A-27],,
0.05,0.01,Cc1oc(-c2ccc(C(F)(F)F)cc2)nc1CCOc1ccc(CC2(C(=O)O)CCC2)cc1 [Example C-33],,
0.7,1,COC(C)(Cc1ccc(OCCc2nc(-c3cccc(F)c3)oc2C)nc1)C(=O)O [Example D-42],,
0.012,0.025,Cc1oc(-c2cccc(C(F)(F)F)c2)nc1CCOc1ccc(CC2(C(=O)O)CCCO2)cc1 (centres unmarked) [Example C-87],,
3.5,0.065,Cc1oc(-c2ccccc2)nc1CCOc1cccc(CC2(C(=O)O)CCC2)c1 [Example C-18],,
0.15,0.46,CCOC(Cc1cccc(CNC(=O)OCc2nc(-c3ccccc3)oc2C)c1)C(=O)O (centres unmarked) [Example B-22],,
0.059,0.7,Cn1nc(-c2ccccc2)nc1COc1cccc(-c2cccc(OC3(C(=O)O)CCC3)c2)c1 [Example A-19],,
1.7,6.4,CCOC(Cc1ccc(OCCc2ccc(OS(C)(=O)=O)cc2)nc1)C(=O)O [Example D-19],,
0.69,0.55,COC(C)(Cc1ccc(OCCc2nc(-c3ccccc3)sc2C)nc1)C(=O)O [Example D-33],,
2,25,CS(=O)(=O)c1ccc(-c2ccc(CCOc3ccc(CC4(C(=O)O)CCC4)cc3)cc2)cc1 [Example C-11],,
,,COc1cccc(-c2nc(CCOc3ccc(CC4(C(=O)O)CCCO4)nc3)c(C)o2)c1 (centres unmarked) [Example C-54],0.02,1.2
